Assay results taken from patent US20030022158A1, “Peptides from the TT virus sequence and monospecific antibodies binding to the TT virus” (priority 1999, published 2003).

These sequences were tested on human IgG antibodies in human serum samples (assay: EIA of human antibody reactivities to overlapping synthetic peptides of TTV ORF1 and ORF2 (Tables 2 and 3)). Conditions: human serum sample 1, negative for TTV DNA by PCR; serum diluted 1:100; OD over 0.500 considered positive.
Type: binding
From the text: Overlapping peptides (18 amino acids in length containing an 8 amino acid overlap) corresponding to regions of the ORFI and ORF2 of TTV (TABLE 1; Genebank accession no AB008394) were produced by a multiple peptide synthesizer (Syro, Syntex, Germany) using standard Fmoc chemistry (Sallberg et al., Immunology Letters, 30:59 68 (1991), herein expressly incorporated by reference in its entirety).
(§1) The EIAs used to identify which peptides interacted with human sera followed protocols known in the art. (See Zhang et al., J Gen Virol, 78:2735-2746 (1997), herein expressly incorporated by reference in its entirety). Briefly, microplates (Nunc, Denmark) were coated for 48 hours with synthetic peptides at a concentration of 10 μg/ml in 0.05M sodium carbonate buffer pH 9.6. After blocking for 2 hours at room temperature with phosphate buffered saline containing 1% bovine serum albumin, 2% goat serum and 0.05% Tween 20 (dilution buffer) the plates were incubated with human sera diluted 1:100 in dilution buffer. Bound human IgG was detected by incubation with anti-human IgG antibodies conjugated to alkaline phosphatase (Sigma Chemicals, St. Louis, Mo.). The plates were developed by the addition of […] (Sigma) and the optical densities were determined at 405 nm.

| Sequence | optical density (OD) at 405 nm [OD] |
| --- | --- |
| YTDIKYNPFTDRGEGNM (Peptide Immunogen) [compound 44, overlapping synthetic peptide of TTV ORF1] | 0.09 |
| GLYSSIWLSPGRSYFET (Peptide Immunogen) [compound 42, overlapping synthetic peptide of TTV ORF1] | 0.08 |

Same assay, conditions: human serum sample 2, negative for TTV DNA by PCR; serum diluted 1:100; OD over 0.500 considered positive

| Sequence | optical density (OD) at 405 nm [OD] |
| --- | --- |
| YTDIKYNPFTDRGEGNM (Peptide Immunogen) [compound 44, overlapping synthetic peptide of TTV ORF1] | 0.11 |
| GLYSSIWLSPGRSYFET (Peptide Immunogen) [compound 42, overlapping synthetic peptide of TTV ORF1] | 0.11 |

Same assay, conditions: human serum sample 3, negative for TTV DNA by PCR; serum diluted 1:100; OD over 0.500 considered positive

| Sequence | optical density (OD) at 405 nm [OD] |
| --- | --- |
| YTDIKYNPFTDRGEGNM (Peptide Immunogen) [compound 44, overlapping synthetic peptide of TTV ORF1] | 0.11 |
| GLYSSIWLSPGRSYFET (Peptide Immunogen) [compound 42, overlapping synthetic peptide of TTV ORF1] | 0.09 |

Same assay, conditions: human serum sample 4, negative for TTV DNA by PCR; serum diluted 1:100; OD over 0.500 considered positive

| Sequence | optical density (OD) at 405 nm [OD] |
| --- | --- |
| YTDIKYNPFTDRGEGNM (Peptide Immunogen) [compound 44, overlapping synthetic peptide of TTV ORF1] | 0.12 |
| GLYSSIWLSPGRSYFET (Peptide Immunogen) [compound 42, overlapping synthetic peptide of TTV ORF1] | 0.10 |

Same assay, conditions: human serum sample 5, negative for TTV DNA by PCR; serum diluted 1:100; OD over 0.500 considered positive

| Sequence | optical density (OD) at 405 nm [OD] |
| --- | --- |
| YTDIKYNPFTDRGEGNM (Peptide Immunogen) [compound 44, overlapping synthetic peptide of TTV ORF1] | 0.98 |
| GLYSSIWLSPGRSYFET (Peptide Immunogen) [compound 42, overlapping synthetic peptide of TTV ORF1] | 0.17 |

Same assay, conditions: human serum sample 6, negative for TTV DNA by PCR; serum diluted 1:100; OD over 0.500 considered positive

| Sequence | optical density (OD) at 405 nm [OD] |
| --- | --- |
| YTDIKYNPFTDRGEGNM (Peptide Immunogen) [compound 44, overlapping synthetic peptide of TTV ORF1] | 0.15 |
| GLYSSIWLSPGRSYFET (Peptide Immunogen) [compound 42, overlapping synthetic peptide of TTV ORF1] | 0.23 |

Same assay, conditions: human serum sample 7, negative for TTV DNA by PCR; serum diluted 1:100; OD over 0.500 considered positive

| Sequence | optical density (OD) at 405 nm [OD] |
| --- | --- |
| YTDIKYNPFTDRGEGNM (Peptide Immunogen) [compound 44, overlapping synthetic peptide of TTV ORF1] | 0.10 |
| GLYSSIWLSPGRSYFET (Peptide Immunogen) [compound 42, overlapping synthetic peptide of TTV ORF1] | 0.11 |

Same assay, conditions: human serum sample 9, positive for TTV DNA by PCR; serum diluted 1:100; OD over 0.500 considered positive

| Sequence | optical density (OD) at 405 nm [OD] |
| --- | --- |
| YTDIKYNPFTDRGEGNM (Peptide Immunogen) [compound 44, overlapping synthetic peptide of TTV ORF1] | 0.09 |
| GLYSSIWLSPGRSYFET (Peptide Immunogen) [compound 42, overlapping synthetic peptide of TTV ORF1] | 0.27 |

Same assay, conditions: human serum sample 11, negative for TTV DNA by PCR; serum diluted 1:100; OD over 0.500 considered positive

| Sequence | optical density (OD) at 405 nm [OD] |
| --- | --- |
| YTDIKYNPFTDRGEGNM (Peptide Immunogen) [compound 44, overlapping synthetic peptide of TTV ORF1] | 0.14 |
| GLYSSIWLSPGRSYFET (Peptide Immunogen) [compound 42, overlapping synthetic peptide of TTV ORF1] | 0.19 |

Same assay, conditions: human serum sample 18, positive for TTV DNA by PCR; serum diluted 1:100; OD over 0.500 considered positive

| Sequence | optical density (OD) at 405 nm [OD] |
| --- | --- |
| YTDIKYNPFTDRGEGNM (Peptide Immunogen) [compound 44, overlapping synthetic peptide of TTV ORF1] | 0.09 |
| GLYSSIWLSPGRSYFET (Peptide Immunogen) [compound 42, overlapping synthetic peptide of TTV ORF1] | 0.12 |

Same assay, conditions: human serum sample 36, positive for TTV DNA by PCR; serum diluted 1:100; OD over 0.500 considered positive

| Sequence | optical density (OD) at 405 nm [OD] |
| --- | --- |
| YTDIKYNPFTDRGEGNM (Peptide Immunogen) [compound 44, overlapping synthetic peptide of TTV ORF1] | 0.08 |
| GLYSSIWLSPGRSYFET (Peptide Immunogen) [compound 42, overlapping synthetic peptide of TTV ORF1] | 0.10 |

Same assay, conditions: human serum sample 48, positive for TTV DNA by PCR; serum diluted 1:100; OD over 0.500 considered positive

| Sequence | optical density (OD) at 405 nm [OD] |
| --- | --- |
| YTDIKYNPFTDRGEGNM (Peptide Immunogen) [compound 44, overlapping synthetic peptide of TTV ORF1] | 0.08 |
| GLYSSIWLSPGRSYFET (Peptide Immunogen) [compound 42, overlapping synthetic peptide of TTV ORF1] | 0.09 |

Same assay, conditions: human serum sample 98, positive for TTV DNA by PCR; serum diluted 1:100; OD over 0.500 considered positive

| Sequence | optical density (OD) at 405 nm [OD] |
| --- | --- |
| YTDIKYNPFTDRGEGNM (Peptide Immunogen) [compound 44, overlapping synthetic peptide of TTV ORF1] | 0.12 |
| GLYSSIWLSPGRSYFET (Peptide Immunogen) [compound 42, overlapping synthetic peptide of TTV ORF1] | 0.16 |

Same assay, conditions: human serum sample 110, positive for TTV DNA by PCR; serum diluted 1:100; OD over 0.500 considered positive

| Sequence | optical density (OD) at 405 nm [OD] |
| --- | --- |
| YTDIKYNPFTDRGEGNM (Peptide Immunogen) [compound 44, overlapping synthetic peptide of TTV ORF1] | 0.13 |
| GLYSSIWLSPGRSYFET (Peptide Immunogen) [compound 42, overlapping synthetic peptide of TTV ORF1] | 0.42 |

Same assay, conditions: human serum sample 155, positive for TTV DNA by PCR; serum diluted 1:100; OD over 0.500 considered positive

| Sequence | optical density (OD) at 405 nm [OD] |
| --- | --- |
| YTDIKYNPFTDRGEGNM (Peptide Immunogen) [compound 44, overlapping synthetic peptide of TTV ORF1] | 0.17 |
| GLYSSIWLSPGRSYFET (Peptide Immunogen) [compound 42, overlapping synthetic peptide of TTV ORF1] | 0.35 |

Same assay, conditions: human serum sample 157, positive for TTV DNA by PCR; serum diluted 1:100; OD over 0.500 considered positive

| Sequence | optical density (OD) at 405 nm [OD] |
| --- | --- |
| YTDIKYNPFTDRGEGNM (Peptide Immunogen) [compound 44, overlapping synthetic peptide of TTV ORF1] | 1.25 |
| GLYSSIWLSPGRSYFET (Peptide Immunogen) [compound 42, overlapping synthetic peptide of TTV ORF1] | 1.24 |

Same assay, conditions: tested human sera, EIA

| Sequence | human reactivity to peptide (reactive peptides within ORF1) |
| --- | --- |
| YTDIKYNPFTDRGEGNM (Peptide Immunogen) [compound 44, overlapping synthetic peptide of TTV ORF1] | Reactive |
| GLYSSIWLSPGRSYFET (Peptide Immunogen) [compound 42, overlapping synthetic peptide of TTV ORF1] | Reactive |

These sequences were tested on human antibodies in human serum samples (assay: EIA reactivities of three human serum samples with deletion and alanine substitution analogues of SEQ ID NO: 1 (Table 6)). Conditions: human serum sample P4; positive = more than 50% of the reactivity of the original peptide.
Type: binding
Description: as §1
The reactivity to the TATTTTYAYPGTNRPPV (SEQ ID NO: 1) peptide was further characterized by mapping the reactivity of deletion and substitution peptide analogues.

| Sequence | OD at 405 nm, reactivity of human serum sample P4 [OD] |
| --- | --- |
| YTDIKYNPFTDRGEGNM (Peptide Immunogen) [compound 44, overlapping synthetic peptide of TTV ORF1] | 0.855 |
| GLYSSIWLSPGRSYFET (Peptide Immunogen) [compound 42, overlapping synthetic peptide of TTV ORF1] | 0.135 |

Same assay, conditions: human serum sample P7; positive = more than 50% of the reactivity of the original peptide

| Sequence | OD at 405 nm, reactivity of human serum sample P7 [OD] |
| --- | --- |
| YTDIKYNPFTDRGEGNM (Peptide Immunogen) [compound 44, overlapping synthetic peptide of TTV ORF1] | 1.829 |
| GLYSSIWLSPGRSYFET (Peptide Immunogen) [compound 42, overlapping synthetic peptide of TTV ORF1] | 0.242 |

Same assay, conditions: human serum sample P36; positive = more than 50% of the reactivity of the original peptide

| Sequence | OD at 405 nm, reactivity of human serum sample P36 [OD] |
| --- | --- |
| YTDIKYNPFTDRGEGNM (Peptide Immunogen) [compound 44, overlapping synthetic peptide of TTV ORF1] | 0.806 |
| GLYSSIWLSPGRSYFET (Peptide Immunogen) [compound 42, overlapping synthetic peptide of TTV ORF1] | 0.076 |
